Measurements as given in PMC3253046 (Chinese Medicine, 2011).
Like-named read-outs stand apart in the source and are kept apart here.

How the values were obtained:
[1] = Stability of the selected isoflavones in transport buffer (PBS+); type: physicochemical; details: three hours of incubation
Protocol: The transport buffer (PBS^+) used in the Caco-2 monolayer model was prepared as previously described. […]. For stability tests at 37°C, samples were taken at 0, 15, 40, 75, 120 and 180 minutes. At each time interval, 300 μl of isoflavone solution was taken and then acidified with 50 μl of 0.425% phosphoric acid. All experiments were conducted in triplicates. The amount of selected isoflavones remained in PBS^+ was determined with high-performance liquid chromatography (HPLC).

[2] = Bidirectional transport in the Caco-2 monolayer model; type: in vitro ADME, human; details: human
Protocol: (§1) The Caco-2 cells were cultured and seeded in the Transwell® inserts (24 mm, 0.4 μm pore size, 4.71 cm^2, polycarbonate filter) according to our previous study. Cells used for the current study were from passage 35-40. The transport experiments were carried out at 23-25 days after seeding. Upon removal of culture medium, the Transwells® were pre-equilibrated with PBS^+ at 37°C for 15 minutes. […] All Caco-2 transport studies were performed at least in triplicates. Procedure was similar to the A→B transport studies except for the donor side and the receiver side was reversed. […] Samples were taken from the receiver (apical) side at the same time points and at the end of the experiment from the donor (basolateral) side as mentioned for the A→B studies. The studies were also performed at least in triplicates. Samples obtained in the Caco-2 transport studies were acidified with 0.425% phosphoric acid at a sample to acid ratio of 150:25 (v/v). […] Waters 2695 separation modules and Waters 996 photodiode array detector were used in the HPLC analyses of the Caco-2 samples. A reversed-phase column (100 × 4.6 mm 5μ Apex ODS Symm, Jones Chromatography, USA) equipped with a guard column (7.5 × 4.6 mm 5μ Spherisorb® ODS-2 C18, Waters, USA]) was used for the analyses of all three isoflavones. In order to shorten sample-running time, three separated HPLC methods were used for each isoflavone. The apparent permeability coefficient, Papp (cm/s), was calculated as follows. Papp=dC∕dT×V/(A×Co) where dC/dT is the initial slope of the plot of cumulative isoflavone concentrations versus time; V is the volume of receiver chamber (ml); A is the apparent surface area of the monolayer; Co is the initial concentration in donor site (μmol/ml). In addition to Papp, the percentage of recovery was calculated for each transport study to determine the extent of absence of isoflavone, which may be due to cell uptake or metabolism of the selected isoflavones after passing through the Caco-2 cells. It was calculated as follows. Recovery%=Final amount (in μmole) of isoflavone in donor and receptor side∕Initial amount (in μmole) of isoflavone in donor side

Caco-2 monolayer = assay: as above; type: in vitro ADME, human; details: for time at which detectable in receiver chambers: after being loaded, both directions
Protocol: as §1

[3] = Partition coefficients (octanol/aqueous); type: physicochemical; details: read-out: partition coefficient D (LogD, octanol/aqueous)
Protocol: The aqueous solution (10 ml) containing individual isoflavones was mixed with octanol (3 ml). The mixtures were equilibrated in tube rotator for 24 hours followed by sampling from the aqueous layers and determining concentrations of the isoflavones by HPLC. The test was performed in triplicates for each isoflavone. The partition coefficients (D) at both pH7.4 and pH 6.8 were obtained through the following equation:
LogD=log(isoflavoneoctanolphase∕isoflavoneaqueousphase)

MRP = assay: Basolateral-to-apical transport in Caco-2 monolayer in the presence of MK571 (MRP inhibitor); type: in vitro ADME, human; details: for lowering of B→A cumulative concentration versus without MK571: MK571 50 μM
Protocol: Procedure was similar to the A→B transport studies except for the donor side and the receiver side was reversed. Loading solution (2.6 ml) was added into the basolateral side and 1.5 ml of the blank PBS^+ was added to the apical side. Samples were taken from the receiver (apical) side at the same time points and at the end of the experiment from the donor (basolateral) side as mentioned for the A→B studies. The studies were also performed at least in triplicates.
The study was performed only for isoflavones that had shown a favorable B→A transport in the bi-directional transport studies. […] To investigate the influence of MRP on the efflux transport of the selected isoflavones, we preloaded 1.5 ml of MK571 (50 μM) at apical side and 2.6 ml of MK571 (50 μM) at the basolateral side respectively. The B→A transport experiments of the selected isoflavones in the presence of MK571 (50 μM) in the both apical and basolateral chambers were then performed following the method described above. The studies were performed in triplicates.

[4] = Hydrolysis on incubation with rat intestinal microvilli preparations; type: in vitro ADME; details: 50 μM, 37°C, two hours, protein 0.43 mg/ml
Protocol: Male Sprague-Dawley rats, supplied by and bred at the Laboratory Animal Service Center at The Chinese University of Hong Kong, were housed in an air-conditioned room under a 12/12-hour light/dark cycle. The experiment was conducted after being approved by the Animal Ethics Committee of The Chinese University of Hong Kong.
Samples from the in vitro incubation studies were centrifuged at 16,000 × g (Eppendorf, Germany) for five minutes; 50 μl of the supernatant of the samples were obtained and injected into the HPLC for analysis. In order to monitor daidzin, puerarin and daidzein in a single run for the samples from the hydrolysis study, we modified the above HPLC method for simultaneous detection of the three compounds. The analytes were separated with an HPLC column (BDS reversed phase column, 25 cm × 4.6 mm id; 5 μm particle size, Thermo Hypersil, UK) and eluted by the linear gradient elution at a flow rate of 1 ml/min. The gradient started with 95% of water with 0.01% aqueous acetic acid (A) and 5% of ACN containing 0.01% acetic acid (B), changed linearly to 83% A and 17% B in 30 minutes; 70% A and 30% B in 30-40 minutes; 50% A and 50% B in 40-45 minutes; and then back to the initial composition in 15 minutes followed by ten minutes after equilibrium.

[5] = both directional transport studies
[6] = Caco-2, pH 6.8, Caco-2, pH6.8, mean ± SD (n = 3), read-out: Recovery Apical to basolateral
[7] = Caco-2, pH 6.8, Caco-2, pH6.8, mean ± SD (n = 3), read-out: Recovery Basolateral to apical

SMILES	isoflavone remained in PBS+ ([1]; pH6.8, 37°C) [%]	isoflavone remained in PBS+ ([1]; pH7.4, 37°C) [%]	recovery ([2]; Caco-2, pH 6.8, Recovery Apical to basolateral) [%]	recovery ([2]; Caco-2, pH 6.8, Recovery Basolateral to apical) [%]	time at which detectable in receiver chambers (Caco-2 monolayer)	percentage of recoveries (Caco-2 monolayer; [5])	logD at 24 h ([3]; pH 6.8, 24 hours equilibration)	logD at 24 h ([3]; pH 7.4, pH7.4, 24 hours equilibration)	recovery [2, 6] [%]	recovery [2, 7] [%]	Papp B→A ([2]; pH 6.8, Caco-2, pH6.8, mean ± SD (n = 3), read-out: Papp Basolateral to apical) [×10⁻⁶ cm/s]	time from which detectable in the receiver chamber (MRP; B→A, in the presence of MK571 50 μM) [min]	lowering of B→A cumulative concentration versus without MK571 (MRP; at 180 minutes) [%]	cumulative concentration in the receiver chamber (B→A) (MRP; at 180 minutes, MK571 50 μM in both chambers) [µM]	lowering of B→A cumulative concentration versus without MK571 (MRP; at 180 minutes, listed as daidzin)	recovery at 180 min (MRP; human, Caco-2, B→A transport in the absence and presence of MK571, read-out: percentages of recovery) [%]	hydrolysis by rat intestinal microvilli preparations [4]	cumulative concentration in the receiver side (Caco-2 monolayer; at 180 minutes after apical loading) [µM]	cumulative concentration in the receiver side (Caco-2 monolayer; at 180 minutes after basal loading) [µM]	fraction permeable through the Caco-2 monolayer (Caco-2 monolayer; [5])
O=c1c(-c2ccc(O)cc2)coc2cc(O)ccc12 [Daidzein, daidzein]	95.50 ± 0.84	97.73 ± 3.43	83.1 ± 5.74	84 ± 14.1	15 min	about 83%	–	–	–	–	–	–	–	–	–	–	–	–	–	–
O=c1c(-c2ccc(O)cc2)coc2cc(O[C@@H]3O[C@H](CO)[C@@H](O)[C@H](O)[C@H]3O)ccc12 [Daidzin, daidzin]	108.66 ± 2.16	108.11 ± 5.21	–	–	–	–	0.34 ± 0.03	0.8 ± 0.03	92.9 ± 1.77	99.2 ± 2.55	0.53	90	50	0.41 ± 0.02	about 50%	> 90	completely hydrolyzed to daidzein	–	–	–
O=c1c(-c2ccc(O)cc2)coc2c([C@@H]3O[C@H](CO)[C@@H](O)[C@H](O)[C@H]3O)c(O)ccc12 [Puerarin, puerarin]	105.00 ± 2.72	106.74 ± 4.20	–	–	not being detectable until two hours	–	–	–	88.9 ± 7.03	92.7 ± 8.09	–	–	–	–	–	–	majority of puerarin remained unchanged	0.043 ± 0.006	0.12 ± 0.02	around 0.3%
